Source: US8367659B2, “Oxazinyl isoflavonoid compounds, medicaments and use” (Marshall Edwards, Inc., priority 2007, dated 2013)
Like-named read-outs stand apart in the source and are kept apart here.

Columns and labels:
[1] = system: PGE2 synthesis in RAW 264.7 murine macrophages; assay: LPS-induced PGE2 synthesis in RAW 264.7 murine macrophages; type: cell-based, mouse; details: 10 μM; relative to vehicle alone; FIG. 3
Procedure: (§1) The mouse macrophage cell line RAW 264.7 was cultured in DMEM supplemented with foetal calf serum (FCS), […] glutamine and 50 U/ml penicillin/streptomycin. Cells were treated with either test compound (in 0.025% DMSO) or vehicle alone, and added one hour before 50 ng/ml LPS. After incubation for 24 h, culture media was collected for PGE2 or TXB2 measurement by ELISA (Cayman Chemical), and TNFα measurement using an ELISA (Becton Dickinson). Test compounds were examined a concentration of 10 μM. […] Consequently, to assess the effect of test compounds on various analytes, cell viability was taken into consideration with the use of the formula: Actual effect of test compound=measured effect−(effect on cell viability×measured effect)

[2] = system: TXB2 synthesis in RAW 264.7 murine macrophages; assay: LPS-induced TXB2 synthesis in RAW 264.7 murine macrophages; type: cell-based, mouse; details: 10 μM; relative to vehicle alone; FIG. 4
Procedure: as §1

T cells = assay: T cell proliferation (ConA-stimulated mouse splenocytes, MTT); type: cell-based, Skh-1:HR 1 (hairless) mice; details: 10 μM, 3 days
Procedure: (§2) Male Skh-1:HR 1 (hairless) mice, approximately six weeks old were killed by cervical dislocation. Single cell suspensions were made from the spleen and erythrocytes were lysed in buffer (0.14 M NH4Cl, 17 mM Tris, pH 7.2). The remaining splenocytes were cultured in RPMI-1640 (Gibco) supplemented with 10% (v:v) FBS, 200 mM L-glutamine, penicillin/streptomycin and […] 2-mercaptoethanol. Splenocytes were added to quadruplicate wells containing either concanavalin A (ConA, Sigma-Aldrich—0.4 μg/well), LPS (Sigma-Aldrich—1 μg/well) or no mitogen, as well 10 μM of test compound in DMSO. Samples were analysed after 3 days incubation at 37° C. in 5% CO2 in air. Methylthiazoletetrazolium (MTT) is bioreduced by viable cells into a coloured formazan product that is soluble in DMSO. Thus the quantity of formazan product is directly proportional to the number of living cells in culture, and can be measured using a spectrophotometer at 570 nm. MTT was added to each well, incubated for a further 4 hrs and then colour developed with 0.04 N HCl in isopropanol. Culture supernatants were stored after collection at −80° C. and analysed by ELISA (BD Biosciences) for IFN-γ (a Th-1 cytokine) and for T cells alone, IL-6 (a Th-2 cytokine).

IFN-γ = IFN-γ synthesis by mouse splenocytes (ELISA); type: cell-based, Skh-1:HR 1 (hairless) mice; details: 10 μM; 3 days
Procedure: as §2

IL-6 = IL-6 synthesis by mouse splenocytes (ELISA); type: cell-based, Skh-1:HR 1 (hairless) mice; details: 10 μM; 3 days
Procedure: as §2

[3] = system: Rabbit kidney (RK-13) cells; assay: Toxicity to normal cells, rabbit kidney (RK-13) cells; type: cell-based; details: Oryctolagus cuniculus
Procedure: IC50 values were determined for each cell line. Cells were seeded in 96-well plates at an appropriate cell density as determined from growth kinetics analysis and cultured for 5 days in the absence and presence of the test compounds. Cell proliferation was assessed after the addition of 20 μl of 3-4,5 dimethylthiazol-2,5-diphenyl tetrazolium bromide (MTT, 2.5 mg/ml in PBS, Sigma) for 3-4 hrs at 37° C. according to manufacturer's instructions. IC50 values were calculated from semi-log plots of % of control proliferation on the y-axis against log dose on the x-axis.
The neonatal foreskin fibroblasts (NFF) were a gift from Dr. Peter Parsons (Queensland Institute of Medical Research). Rabbit kidney (RK-13) cells were obtained from Miller Whalley (Macquarie University). Both cell lines were cultured in RPMI supplemented with 10% FCS(CSL, Australia), penicillin (100 U/ml), streptomycin ([…]), L-glutamine (2 mM) and sodium bicarbonate (1.2 g/L), and cultured at 37° C. in a humidified atmosphere of 5% CO2. IC50 values were determined as described above.

VCAM = assay: TNFα-induced VCAM expression in human arterial endothelial cells (ELISA); type: cell-based; details: HAEC; 10 μM found most appropriate for comparing
Procedure: Inhibition of TNFα-stimulated endothelial cell activation by compounds was assessed by measuring surface expression of cell adhesion molecules with an ELISA method. Human arterial endothelial cells (HAEC) in growth medium (Cell Applications Inc.) were seeded into 96-well plates at a density of 10,000 cells per well. Plates were incubated overnight at 37° C. in a humidified incubator to allow for cells to become confluent. On the morning of the experiment, TNFα (10 μl, 2 ng/ml) was added to each well, which contained 100 μl of medium. Compounds were diluted in DMSO-containing medium (2.5% DMSO) to give a compound concentration of 100 and 300 μM. Compounds were added to wells so that final concentrations were 10 and 30 μM. DMSO-containing medium alone was added to zero concentration control wells. All samples were measured in quadruplicate (4 wells per treatment).
After incubation with compound, medium was removed and cells were probed with either non-specific IgG or specific mouse antibodies against E-selectin, ICAM or VCAM (BD Biosciences—0.1 μg in 100 μL buffered saline with 10% heat-inactivated human serum). Adhesion molecule expression was detected by addition of sheep anti-mouse antibody/horseradish peroxidase conjugate. […] Optical density was measured at 405 nm with an ELISA reader (Titertek Multiscan, Flow Laboratories). […]

SMILES	mean change of LPS-induced PGE2 synthesis [1]	mean change of LPS-induced TXB2 synthesis [2]	effect on T cells (T cells)	synthesis of INF-γ into the supernatant (IFN-γ)	synthesis of IL-6 into the supernatant (IL-6)	IC50 ([3]; normal, non-transformed cells, read-out: IC50 μM, RK Rabbit Kidney)	IC50 ([3]; read-out: toxicity to RK-13 cells (IC50))	effect on TNFα-induced VCAM expression (VCAM)
CC(c1ccccc1)N1COc2cc3c(cc2C1)C=C(c1ccc(O)cc1)CO3 (centres unmarked) [Compound 2, 4-(3-(1-Phenylethyl)-2,3,4,8-tetrahydrochromeno[6,7-e][1,3]oxazin-7-yl)phenol]	greatest inhibition	greatest inhibition	markedly and significantly immunosuppressive	concomitant reduction	concomitant reduction	53.3 µM	> 30 µM	
Oc1cccc(C2=Cc3ccc(O)cc3OC2)c1 [Compound 37-DHE, 3′,7-dihydroxy-isoflav-3-ene, reference compound]								less pronounced
